In US20120129838A1, “Composition for Preventing and Treating Alopecia Disorder Containing Morgalanthamine Compounds as an Active Ingredient” (The Industry & Academic Cooperation in Chungnam National …, priority 2009, published 2012):
Counter-ions that a name gives are not always drawn.

Legend:
rat vibrissa follicles = assay: Growth of rat vibrissa follicles in organ culture; conditions: time point of 21 days, isolated Wistar rat vibrissa follicles
Experimental: In order to measure an effect of the norgalanthamine compound prepared in Experimental Example 1 on hair growth, the following experiment was performed using a method described in the publication (Philpott M P, et al., Cyclical changes in rat vibrissa follicles maintained in vitro. J Invest Dermatol. 115, pp. 1152-1155, 2000),
A 3-week-old male Wistar rat (Japan SLC, Hamamatsu, Japan) was purchased from Central Lab. Animal Inc. (Korea), anesthetized with ethyl ether, and killed by cervical vertebral dislocation. The left and right mystacial pads of the rat were extracted and put into an E/P buffer ((EBSS, Earle's balanced salts solution, Sigma Mo., USA)+(PBS, phosphate-buffered saline, Sigma Mo., USA)) supplemented with 100 units/ml penicillin and 100 μg/ml streptomycin (Gibco Inc, NY, USA). Vibrissa follicles were carefully isolated under a steroscopic dissecting microscope. Until the hair follicles were completely isolated, the hair follicles were put into a Petri dish containing an E/P buffer, and incubated at 37° C. for 1 hour in a 5% CO2 pyrostat. 500 μl of William E medium (Gibco Inc, NY, USA) containing 2 mM. L-glutamine (Gibco Inc, NY, USA), 10 μg/ml insulin (Sigma Mo., USA), 50 nM hydrocortisone (Sigma Mo., USA) and 100 units/ml penicillin-100 μg/ml streptomycin was put into each well of a 24-well plate, and one hair follicle was added to each well, and incubated at […] in a 5% CO2 pyrostat. 10 to 12 hair follicles were used in each experimental group, and a medium was changed with a fresh medium every 3 days during the incubation. […]
Photographs of shapes of vibrissa follicles were taken using a microscope (Olympus, Japan). Lengths of hair follicles were measured at time points of 0, 7, 14 and 21 days using an image analyzer (DP controller; Olympus, Japan). An average variation in lengths of the hair follicles was calculated, and a growth level was measured by comparing the average variation with an average length of the control.

[1] = tested on: rat vibrissa immortalized dermal papilla cell line; assay: Proliferation of dermal papilla cells (MTT assay); format: cell-based; conditions: incubated for 4 days, absorbance at 540 nm
Experimental: A rat vibrissa immortalized dermal papilla cell line obtained by immortalizing dermal papilla cells isolated from rat whiskers (Filsell W, et al., Transfection of rat dermal papilla cells with a gene encoding a temperature-sensitive polyomavirus large T antigen generates cell lines a differentiated phenotype., J. Cell Sci, 107, pp. 1761-1772, 1994) was incubated at 37° C. in a DMEM (Hyclone Inc, USA) medium containing […] (Gibco Inc, NY, USA) and 10% heat-inactivated fetal bovine serum (FBS, Gibco Inc, NY, USA) using a 5% CO2 pyrostat, and subcultured every 3 days.
The cultured dermal papilla cells (1.0×10^4 cells/ml) were put into each well of a 96-well plate, and incubated for 24 hours. Then, a used culture solution was changed with a serum-free DMEM medium, and cultured again for 24 hours. Thereafter, the cultured solution was treated with 0.01 and 0.1 μM concentrations of the norgalanthamine compound of Experimental Example 1, and a 1 μM concentration of a positive control, minoxidil sulfate (M.S., Sigma, Mo., USA), respectively. The resulting mixture was incubated for 4 days, 50 μl of MTT (Sigma, Mo., USA) was added thereto, and the mixture was reacted for 4 hours. A supernatant was removed, and a pellet was dissolved in 200 μl of DMSO, and then measured for absorbance at 540 nm using a microplate reader (Amersham Pharmacia Biotech, NY, USA). An average absorbance value of each sample group was calculated, and a level of the hair proliferation was examined by comparing the average absorbance value with an absorbance value of the control.

Compound | growth of hair fiber compared to that of the control (100%) (rat vibrissa follicles; 1 uM, positive control) [%] | proliferation of dermal papilla cells compared to the control (100%) ([1]; 1 μM, positive control) [%] | growth of hair fiber compared to that of the control (100%) (rat vibrissa follicles; 0.01 uM) [%] | growth of hair fiber compared to that of the control (100%) (rat vibrissa follicles; 0.1 uM) [%] | proliferation of dermal papilla cells compared to the control (100%) ([1]; 0.01 μM) [%] | proliferation of dermal papilla cells compared to the control (100%) ([1]; 0.1 μM) [%]
Nc1cc(N2CCCCC2)nc(N)[n+]1OS(=O)(=O)[O-] [minoxidil sulfate, reference compound] | 135.03±38.8 | 114.9±4.5 | – | – | – | –
COc1ccc2c3c1OC1C[C@@H](O)C=C[C@@]31CCNC2 (stereo partly drawn) [norgalanthamine] | – | – | 128.7±13.8 | 139.2±10.3 | 114.0±4.3 | 106.2±5.6
